Test [1] addresses T1, aldosterone synthase (Homo sapiens, UniProt P19099).
T1 construct: host or cells: NCI-H295R
T1 sequence (P19099 25-503): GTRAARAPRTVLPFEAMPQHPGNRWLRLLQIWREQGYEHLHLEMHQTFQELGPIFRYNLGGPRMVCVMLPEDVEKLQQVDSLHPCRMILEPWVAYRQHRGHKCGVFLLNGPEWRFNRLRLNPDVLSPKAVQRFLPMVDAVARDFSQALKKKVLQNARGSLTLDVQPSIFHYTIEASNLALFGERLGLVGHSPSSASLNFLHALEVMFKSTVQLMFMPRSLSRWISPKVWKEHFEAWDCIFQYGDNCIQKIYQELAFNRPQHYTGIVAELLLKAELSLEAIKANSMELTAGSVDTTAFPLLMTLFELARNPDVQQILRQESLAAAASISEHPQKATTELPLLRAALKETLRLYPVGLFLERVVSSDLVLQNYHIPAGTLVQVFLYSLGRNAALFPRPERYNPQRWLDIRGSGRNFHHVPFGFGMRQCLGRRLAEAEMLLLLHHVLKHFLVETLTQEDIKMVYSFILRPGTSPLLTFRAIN
The experiment in a line: Aldosterone cell secretion in NCI-H295R cells (Ang II stimulated, SPA). The class given is cell-based. The text has this:
In particular, the aldosterone synthase inhibitory activities in vitro can be determined by the following assay.
Human adrenocortical carcinoma NCI-H295R cell line was obtained from American Type Culture Collection (Manassas, Va.). Insulin/transferrin/selenium (ITS)-A supplement (100×), DMEM/F-12, antibiotic/antimycotic (100×), and fetal bovine serum (FBS) were purchased from Invitrogen (Carlsbad, Calif.). Anti-mouse PVT scintillation proximity assay (SPA) beads and NBS 96-well plates were obtained from GE Health Sciences (Piscataway, N.J.) and Corning (Acton, Mass.), respectively. Solid black 96-well flat bottom plates were purchased from Costar (Corning, N.Y.). Aldosterone and angiotensin (Ang II) were purchased from Sigma (St. Louis, Mo.). D[1,2,6,7-^3H(N)]aldosterone was acquired from PerkinElmer (Boston, Mass.). Nu-serum was a product of BD Biosciences (Franklin Lakes, N.J.).
For in vitro measurement of aldosterone activity, human adrenocortical carcinoma NCI-H295R cells are seeded in NBS 96-well plates at a density of 25,000 cells/well in 100 μl of a growth medium containing DMEM/F12 supplemented with 10% FCS, 2.5% Nu-serum, 1 μg ITS/ml, and 1× antibiotic/antimycotic. The medium is changed after culturing for 3 days at 37° C. under an atmosphere of 5% CO2/95% air. On the following day, cells are rinsed with 100 μl of phosphate-buffered saline (PBS) and incubated with 100 μl of treatment medium containing 1 μM Ang II and a compound at different concentrations in quadruplicate wells at 37° C. for 24 hr. At the end of incubation, 50 μl of medium is withdrawn from each well for measurement of aldosterone production by an SPA using mouse anti-aldosterone monoclonal antibodies.
Measurement of aldosterone activity can also be performed using a 96-well plate format. Each test sample is incubated with 0.02 μCi of D-[1,2,6,7-^3H(N)]aldosterone and 0.3 μg of anti-aldosterone antibody in PBS containing 0.1% Triton X-100, 0.1% bovine serum albumin, and 12% glycerol in a total volume of 200 μl at room temperature for 1 hr. Anti-mouse PVT SPA beads (50 μl) are then added to each well and incubated overnight at room temperature prior to counting in a Microbeta plate counter. The amount of aldosterone in each sample is calculated by comparing with a standard curve generated using known quantities of the hormone.
(§1) Inhibition of the release of certain steroids can be used as a measure of the respective enzyme inhibition by the added test compounds. The dose-dependent inhibition of enzymic activity by a compound is calculated by means of an inhibition plot which is characterized by an IC50.
The IC50 values for active test compounds are ascertained by a simple linear regression analysis in order to construct inhibition plots without data weighting. The inhibition plot is calculated by fitting a 4-parameter logistic function to the raw data points using the least squares method. The equation of the 4-parameter logistic function is calculated as follows: Y=(d−a)/((1+(x/c)b))+a, where: a=minimum data level, b gradient, I c=ICED, d=maximum data level, x=inhibitor concentration.
The inhibition activity of aldosterone production can also be expressed in percentage inhibition (% inhibition) at a given concentration (e.g. % inhibition at 1 μM), which is the aldosterone level when the cell is treated with the given concentration of a compound of this invention (e.g. concentration of 1 μM) versus the aldosterone excretion when cell is free of the compound of the invention: % inhibition aldosterone production=[(Y′−X′)/Y′]×100 wherein X′ is the level of aldosterone when the cell is treated with a compound of Formula I and Y′ is the level of aldosterone when the cell is free of compound of Formula I.

For test [2], the target named is T2, CYP11B1 (Homo sapiens, UniProt P15538).
T2 construct: the NCI-H295R cells have Cyp11 B1 (steroid 11 β-hydroxylase); host or cells: NCI-H295R
T2 sequence (P15538 25-503): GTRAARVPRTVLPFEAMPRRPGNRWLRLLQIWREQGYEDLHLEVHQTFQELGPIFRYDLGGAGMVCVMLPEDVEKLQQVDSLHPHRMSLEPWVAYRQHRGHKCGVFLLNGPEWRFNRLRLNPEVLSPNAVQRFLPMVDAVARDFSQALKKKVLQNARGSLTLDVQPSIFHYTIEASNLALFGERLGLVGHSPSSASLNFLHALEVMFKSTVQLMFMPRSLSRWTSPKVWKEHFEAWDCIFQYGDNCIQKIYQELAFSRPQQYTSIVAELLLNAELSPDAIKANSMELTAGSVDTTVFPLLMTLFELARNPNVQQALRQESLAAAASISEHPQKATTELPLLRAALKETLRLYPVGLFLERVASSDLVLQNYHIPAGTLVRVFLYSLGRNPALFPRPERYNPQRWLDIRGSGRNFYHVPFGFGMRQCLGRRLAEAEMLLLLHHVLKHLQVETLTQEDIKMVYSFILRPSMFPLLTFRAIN
The test is described as follows: Cortisol cell secretion in NCI-H295R cells (CYP11B1 activity). It counts as cell-based. Conditions: for inhibition at 1 µM: read-out: Cortisol cell secretion (% Inhib. @ 1 μM).
Excerpt: The in vitro inhibitory activities for CYP11B1 can be determined by the following assay.
The cell line NCI-11295R was originally isolated from an adrenocortical carcinoma and has been characterized in the literature through the stimulable secretion of steroid hormones and the presence of the enzymes essential for steroidogenesis. Thus, the NCI-H295R cells have Cyp11 B1 (steroid 11 β-hydroxylase). The cells show the physiological property of zonally undifferentiated human foetal adrenocortical cells which, however, have the capacity to produce the steroid hormones which are formed in the three, phenotypically distinguishable zones in the adult adrenal cortex.
The NCI-H295R cells (American Type Culture Collection, ATCC, Rockville, Md., USA) are grown in Dulbeoco's Modified Eagle' Ham F-12 Medium (DME/F12), which has been supplemented with Ulroser SF Serum (Soprachem, Cergy-Saint-Christophe, France), insulin, transferrin, selenite (I-T-S, Becton Dickinson Biosciences, Franklin lakes, N.J., USA) and antibiotics in 75 cm^2 cell culture vessels at 37° C. and in a 95% air-5% carbon dioxide atmosphere. The cells are subsequently transferred for colony formation into a 24-well incubation vessel. They are cultivated there in DME/F12 medium, which is now supplemented with 0.1% bovine serum instead of Ultroser SF for 24 hours. The experiment is initiated by cultivating the cells in DME/F12 medium which is supplemented with 0.1% bovine serum albumin and test compound, in the presence or absence of cell stimulants, for 72 hours. The test substance is added in a concentration range from 0.2 nanomolar to 20 millimolar. Cell stimulants which can be used are angiotensin II ([…] or 100 nanomolar), potassium ions (16 millimolar), forskolin (10 micromolar) or a combination of two stimulants.
The excretion of aldosterone, cortisol, corticosterone and estradiol/estrone into the culture medium can be detected and quantified by commercially available, specific monoclonal antibodies in radioimmunoassays in accordance with the manufacturer's instructions.
as §1
The inhibition activity of cortisol production (CYP11B1 activity) can also be expressed in percentage inhibition (% inhibition) at a given concentration (e.g. % inhibition at 1 μM), which is the cortisol level when cell is treated with the given concentration of a compound of the invention (e.g. concentration of 1 versus the cortisol excretion when cell is free of the compound of the invention: % inhibition cortisol production=[(Y′−X′)/Y′]×100 wherein X′ is the level of cortisol when the cell is treated with a compound of Formula I; and Y′ is the level of cortisol when the cell is free of compound of Formula

Results on 16 molecules are retold here after patent US8778972B2, “5-pyridin-3-yl-1, 3-dihydro-indol-2-on derivatives and their use as modulators of aldosterone synthase and/or CYP11B1” (Novartis AG, priority 2009, dated 2014).

In general, IC50 refers to the midpoint of a concentration-inhibition curve. The low end stands for greater potency in that assay, the high end for weaker potency in that assay. As for “1-Isopropyl-3-[5-(1-methyl-2-oxo-2,3-dihydro-1H-indol-5-yl)-pyridin-3-ylmethyl]-urea [Example 15]”, inhibition in test [1] was half-maximal at 172 nM (IC50). Further, in test [2], the “Cortisol cell secretion (% Inhib. @ 1 μM)” value amounted to 82%. “1-Methyl-5-(5-methyl-pyridin-3-yl)-1,3-dihydro-indol-2-one [Example 1]” registered an IC50 in test [1] of 91.5 nM. Further, in test [2], the “Cortisol cell secretion (% Inhib. @ 1 μM)” value is 29.5%. The corresponding values for “5-(4-Ethyl-pyridin-3-yl)-1-methyl-1,3-dihydro-indol-2-one [Example 6]” are 11 nM and 83%.

“5-(5-Ethoxy-pyridin-3-yl)-1-methyl-1,3-dihydro-indol-2-one [#13]” returned an IC50 in test [1] of 18 nM. Further, in test [2], the “Cortisol cell secretion (% Inhib. @ 1 μM)” value turned out to be 51%.

In test [1], “5-[5-(1-Hydroxy-1-methyl-ethyl)-pyridin-3-yl]-1-methyl-1,3-dihydro-indol-2-one [Example 16]” showed an IC50 of 14 nM. Moreover, the “Cortisol cell secretion (% Inhib. @ 1 μM)” value in test [2] was 87%. `CN1C(=O)Cc2cc(-c3cncc(F)c3)ccc21` [Example 2, 5-(5-Fluoro-pyridin-3-yl)-1-methyl-1,3-dihydro-indol-2-one] returned an IC50 in test [1] of 5 nM. In test [2], the “Cortisol cell secretion (% Inhib. @ 1 μM)” value is given as 83%. With `CN1C(=O)Cc2c1ccc(-c1cccnc1)c2Cl` [Example 4], inhibition in test [1] was half-maximal at 10 nM (IC50). The inhibition at 1 µM in test [2] was 85.5%. Consider `CN1C(=O)Cc2cc(-c3cncc(C(N)=O)c3)ccc21` [Example 5, 5-(1-Methyl-2-oxo-2,3-dihydro-1H-indol-5-yl)-nicotinamide], for which the IC50 in test [1] worked out at 58 nM. For the same molecule, the “Cortisol cell secretion (% Inhib. @ 1 μM)” value in test [2] is 78%. As to `COc1c(-c2cccnc2)ccc2c1CC(=O)N2C` [Example 8], it took 36 nM to reach half-maximal inhibition in test [1] (IC50). In test [2], the inhibition at 1 µM worked out at 84%. `CC(C)C(=O)Nc1cncc(-c2ccc3c(c2)CC(=O)N3C)c1` [Example 9, N-[5-(1-Methyl-2-oxo-2,3-dihydro-1H-indol-5-yl)-pyridin-3-yl]-isobutyramide] registered an IC50 in test [1] of 15 nM. For the same molecule, the “Cortisol cell secretion (% Inhib. @ 1 μM)” value in test [2] was found to be 89%.

On to `Cc1c(-c2cncc(Br)c2)ccc2c1CC(=O)N2C` [Example 10], for which the IC50 in test [1] came to 4 nM. Moreover, the inhibition at 1 µM in test [2] was 93%. Molecule `CN1C(=O)Cc2cc(-c3cncc(C4CC4)c3)ccc21` [Example 12] registered an IC50 in test [1] of 2 nM. The inhibition at 1 µM in test [2] is 79%. As to `CCOc1cncc(-c2ccc3c(c2)CC(=O)N3C)c1` [Example 13], in test [1], the IC50 worked out at 20 nM. Also, the inhibition at 1 µM in test [2] worked out at 83.5%.

In the case of `CN1C(=O)Cc2cc(-c3cncc(-c4cccnc4)c3)ccc21` [Example 14], the IC50 in test [1] amounted to 18 nM. Also, in test [2], the inhibition at 1 µM was 60%. Regarding `Cn1c(=O)n(C)c2cc(-c3cccnc3)ccc21` [Example 18], in test [1], the midpoint of inhibition, the IC50, lay at 408 nM.

With `Cn1c(=O)oc2cc(-c3cccnc3)ccc21` [Example 19], the IC50 in test [1] was found to be 472 nM.
